Measured values taken from patent US4100291A, “Novel 1,4-benzodioxanes” (Roussel Uclaf, priority 1976, dated 1978).
Structures can show the parent of a compound that is named as a salt.

What was measured:
[1] = Acute toxicity in mice, intraperitoneal (Table I); conditions: mouse, in vivo, ip, suspension in carboxymethylcellulose, observed one week
Excerpt: The results are in Table I.

[2] = system: carotidine arterial pressure; assay: Hypotensive activity in anesthetized rats, intravenous (Table II); format: in vivo, male rats of the Sprague-Dawley SPF strain; conditions: for % Variation in pressure: compared to initial carotid arterial pressure; for Duration of Activity: time for pressure to return to initial value
Method: The hypotensive activity was determined on male rats of the Sprague-Dawley SPF strain weighing about 300 g which had been anestesized with nembutal (50 mg/kg intraveinously). The product was administered intraveinously by the jugular vein and the carotidine arterial pressure was measured before and after the administration of the test product. Table II reports the variations expressed in percent of arterial pressure after administration of the test product as compared to the initial arterial pressure as well as the time necessary for the pressure to return to the initial value.

[3] = system: arterial pressure measured at the rat's tail; assay: Antihypertensive activity in spontaneous hypertensive rats, oral (Table III); format: in vivo, spontaneous hypertendus male rats of the Okamoto strain
Method: The antihypertensive activity was determined on spontaneous hypertendus male rats of the Okamoto strain 8 weeks old and the test products were orally administered daily for 9 days. The arterial pressure was measured at the rat's tail by means of a pneumatic collar connected to an electronic transducer of pressure.

[4] = daily dose 50 mg/kg oral, 1st Day, 1 hr after 1st ad.
[5] = daily dose 50 mg/kg oral, 1st Day, 4 hr. after

SMILES | LD50 at 168 h [1] | Duration of Activity ([2]; 1 mg/kg) | % Variation in pressure ([2]; 1 mg/kg) | % Pressure variation [3, 4] | % Pressure variation [3, 5] | other results
COc1ccc2[nH]cc(C3CCN(CC(O)C4COc5ccccc5O4)CC3)c2c1 (single isomer, unassigned) [Example 2 isomer A, isomer A of (dl) α-(2,3-dihydro-1,4-benzodioxin-2-yl)-4-(5-methoxy-[1H]-indol-3-yl)-1-piperidine-ethanol] | ~500 mg/kg | 60 min |  |  |  | % Variation in pressure ([2]; 1 mg/kg, listed as 2 isomer A): -14%
Cn1cc(C2CCN(CC(O)C3COc4ccccc4O3)CC2)c2ccccc21 (stereo not drawn) [Example 5, α-(2,3-dihydro-1,4-benzodioxin-2-yl)-4-(1-methyl-[1H]-indol-3-yl)-1-piperidine-ethanol] | ~250 mg/kg | 30 min | -10% |  |  | 
COc1ccc2[nH]cc(C3CCN(CC(O)C4COc5ccccc5O4)CC3)c2c1 (single isomer, unassigned) [Example 2 isomer B, isomer B of (dl) α-(2,3-dihydro-1,4-benzodioxin-2-yl)-4-(5-methoxy-[1H]-indol-3-yl)-1-piperidine-ethanol] |  | 60 min |  |  |  | % Variation in pressure ([2]; 1 mg/kg, listed as 2 isomer B): -20%
OC(CN1CCC(c2c[nH]c3ccccc23)CC1)C1COc2ccccc2O1 (racemic) [Example 1, (d,l) erythro α-(2,3-dihydro-1,4-benzodioxin-2-yl)-4-([1H]-indol-3-yl)-1-piperidine-ethanol hydrochloride] | ~100 mg/kg | 45 min | -25% | -11% | -12% | % Pressure variation ([3]; daily dose 50 mg/kg oral for 9 days, 10th Day, 24 hr. after 1st ad. (so in the source)): -15%; % Variation in pressure ([2]; 0.1 mg/kg): -10%; Duration of Activity ([2]; 0.1 mg/kg): 30 min
COc1ccc2c(C3CCN(CC(O)C4COc5ccccc5O4)CC3)c(C)[nH]c2c1.Cl (stereo not drawn) [Example 3, α-(2,3-dihydro-1,4-benzodioxin-2-yl)-4-(6-methoxy-2-methyl-[1H]-indol-3-yl)-1-piperidine-ethanol hydrochloride] |  | 60 min |  | -26% | -27% | % Variation in pressure ([2]; 10 mg/kg): -25%; Duration of Activity ([2]; 10 mg/kg): 60 min
OC(CN1CC=C(c2c[nH]c3ccccc23)CC1)C1COc2ccccc2O1 (stereo not drawn) [Example 4, α-(2,3-dihydro-1,4-benzodioxin-2-yl)-4-([1H]-indol-3-yl)-1,2,3,6-tetrahydro-1-pyridine-ethanol] |  |  |  | -10% | -18% | 
